The values that follow are results of earlier work, collected in US20210054334A1, “DIRECTED DIFFERENTIATION OF ASTROCYTES FROM HUMAN PLURIPOTENT STEM CELLS FOR USE IN DRUG SCREENING AND THE TREATMENT OF AMYOTROPHIC LATERAL SCLEROSIS (ALS)” (Kadimastem Ltd., priority 2013, published 2021).

The conditions of this data set: ALS.

Structures are written as SMILES.

In the case of `Nc1nc2ccc(OC(F)(F)F)cc2s1` [Rilutek, Riluzole], the extension of lifespan result is recorded as “only extends lifespan by a maximum of three months”.
